Results reported in patent publication US9708247B2, “Modulators of the eIF2alpha pathway” (The Regents of the University of California, priority 2013, dated 2017).

Columns and labels:
auditory fear memory = test: Cannulation and auditory fear conditioning; format: in vivo, rat; conditions: rats, infused into amygdala, vs vehicle
Experimental: Male Sprague Dawley rats (275-350 g) were used for cannulation as described in Migues et al, 2010 (46). ISRIB (0.05 mg/ml, […]) was infused bilaterally into the amygdala immediately after auditory fear conditioning training. The infusion was performed with a microinjector (28 gauge) connected to a Hamilton syringe with plastic tubing at a rate of 0.4 μl/min. To allow for the solution containing ISRIB to diffuse from the tip of the cannula into the tissue, the microinjector stayed in the cannula for one additional minute. Training protocol for auditory fear conditioning consisted of a 2-min period of context A exploration, followed by one pairing of a tone (2800 Hz, 85 dB, 30 s) with a co-terminating foot shock (0.75 mA, 1 s). Rats were returned to their home cage 1 min after the shock. Test for auditory fear memory consisted of a 2 min acclimatizing period to the context B (pre-CS), followed by tone presentation (CS) (2800 Hz, 85 dB, 30 s). Freezing time was measured and percent of freezing was calculated. At the end of the experiment, cannula placement was checked by examining 50 μm brain sections stained with formal-thionin under a light microscope.

[1] = tested on: hippocampal-dependent memory; test: Trace fear conditioning after surgery (postsurgical cognitive dysfunction); format: in vivo, mouse; conditions: mice, perioperative administration, postoperative day three
Description: FIG. 26. Experimental design for measuring postsurgical cognitive dysfunction and effects of ISRIB on cognitive function; measurement of memory is a behavioral test using trace fear conditioning (TFC), which aims to establish a permanent memory in animals by using sensorial information; associative learning is presented with a neutral conditioning stimulus, paired with an aversive unconditioning stimulus (e.g. shock); freezing by the animal corresponds to the ability of the animal to retain memory from the context in which it has been trained. Separate cohorts of animals were used to assess inflammatory status 24 h after surgery. Downwards arrows represent injection points. FIG. 27. […] Control animals were given vehicle solution.

spatial learning = test: Morris water maze (hidden platform, weak training); format: in vivo, mouse; conditions: p<0.05
Experimental: Eight to ten-week-old male C57BL/6J mice were used for behavioral experiments. Food and water were provided ad libitum, and mice were kept on a 12:12 h light/dark cycle (lights on at 08:00 h). All procedures complied with Canadian Council on Animal Care guidelines
Mice were trained in a water pool of 100 cm diameter with a hidden platform of 10 cm diameter. Mice were handled daily for 3 days before the experiment, and the training protocol consisted of 1 swimming trial per day. Each mouse swam until it found the hidden platform or 120 s, when it was gently guided to the platform and stayed there for 10 s before being returned to the cage. Immediately after the swimming trial the mice were injected intraperitoneally with ISRIB (0.25 mg/kg in saline, 1% DMSO). For the probe test, the platform was removed and each mouse was allowed to swim for 60 s, while its swimming trajectory was monitored with a video tracking system (HVS Image, Buckingham).

eIF2α (S51D) = test: Polysome gradient analysis in HEK293Trex cells expressing eIF2α(S51D); format: cell-based, human; conditions: 25 nM doxycycline 14 h, 200 nM ISRIB
Experimental: The coding sequences of wild type mouse eIF2α, phosphomimetic (S51D) mutant was amplified by PCR from a mammalian expression vector (kind gift of David Ron). BamHI and EcoRI recognition sites were engineered into the primers. In addition a Kozak consensus sequence and a N-terminal FLAG epitope tag were engineered in the forward primer. […]. Mouse Embryonic Fibroblasts (MEFs) or TREx-293 cells expressing eIF2α(S51D) were seeded on 150 mm plates and allowed to grow to 80% confluence. Cells were then induced with 25 nM doxycycline for 14 h and subsequently treated with the appropriate compounds for the indicated times. 100 μg/ml of cycloheximide was added to the cells for 1 min before lysis. Cells were washed twice with PBS supplemented with 100 μg/ml cycloheximide and subsequently lysed in 20 mM Tris pH 7.4, 200 mM NaCl, 15 mM MgCl, 1 mM DTT, 8% Glycerol, 100 μg/ml cycloheximide, 1% Triton X-100 and EDTA-free protease inhibitor tablets (Roche). Cells were scraped, collected, triturated with a 25^7/8 gauge needle, and the homogenate was centrifuged for 10 min at 10,000×g. The supernatant was loaded on a 10-50% sucrose gradient and sedimented in a SW40 rotor at 150,000×g for 2.4 h. The gradients were fractionated using a piston gradient fractionator (BioComp) and UV absorbance at 254 nm was monitored using a UV-Monitor (BioRad).

[2] = tested on: mouse embryonic fibroblasts (MEFs); test: Polysome gradient analysis in MEFs; format: cell-based
Experimental: Mouse Embryonic Fibroblasts (MEFs) or TREx-293 cells expressing eIF2α(S51D) were seeded on 150 mm plates and allowed to grow to 80% confluence. Cells were then induced with 25 nM doxycycline for 14 h and subsequently treated with the appropriate compounds for the indicated times. 100 μg/ml of cycloheximide was added to the cells for 1 min before lysis. Cells were washed twice with PBS supplemented with 100 μg/ml cycloheximide and subsequently lysed in 20 mM Tris pH 7.4, 200 mM NaCl, 15 mM MgCl, 1 mM DTT, 8% Glycerol, 100 μg/ml cycloheximide, 1% Triton X-100 and EDTA-free protease inhibitor tablets (Roche). Cells were scraped, collected, triturated with a 25^7/8 gauge needle, and the homogenate was centrifuged for 10 min at 10,000×g. The supernatant was loaded on a 10-50% sucrose gradient and sedimented in a SW40 rotor at 150,000×g for 2.4 h. The gradients were fractionated using a piston gradient fractionator (BioComp) and UV absorbance at 254 nm was monitored using a UV-Monitor (BioRad).

IL-6 = test: Serum IL-6 after surgery (ELISA); format: in vivo, mouse; conditions: mice, perioperative administration, 24 h after surgery
Description: FIG. 26. Experimental design for measuring postsurgical cognitive dysfunction and effects of ISRIB on cognitive function; measurement of memory is a behavioral test using trace fear conditioning (TFC), which aims to establish a permanent memory in animals by using sensorial information; associative learning is presented with a neutral conditioning stimulus, paired with an aversive unconditioning stimulus (e.g. shock); freezing by the animal corresponds to the ability of the animal to retain memory from the context in which it has been trained. Separate cohorts of animals were used to assess inflammatory status 24 h after surgery. Downwards arrows represent injection points.
FIG. 28. […] Levels were measured using an enzyme-linked immunosorbent kit.

O=C(COc1ccc(Cl)cc1)NC1CCC(NC(=O)COc2ccc(Cl)cc2)CC1 (stereo not shown) [ISRIB]
freezing to tone (CS), short-term memory (auditory fear memory; 3 h): no difference | freezing to tone (CS), long-term memory (auditory fear memory; 24 h, p<0.05): significant increase | memory impairment after surgery (freezing) [1]: mitigated memory impairment after surgery | probe test: preference for target quadrant (spatial learning; 24 h after last training session): significantly preferred the target quadrant | escape latency after 5 days of training (spatial learning; mice, 0.25 mg/kg ip daily after training, vehicle 68.1+/−20 s): 16.4 ± 4.8 s | probe test: crossing of the platform location (spatial learning; vs vehicle): increased crossing of the platform location | translational attenuation by eIF2α(S51D) expression (eIF2α (S51D)): rescued translation | translational attenuation by Torin-1 (CAP-dependent initiation) ([2]; 750 nM torin-1, 200 nM ISRIB, 2 h): did not reverse the effect of Torin-1 on translation | ER stress-induced increase in 80S monosomes at the expense of polyribosomes ([2]; 2 μg/ml tunicamycin, 200 nM ISRIB, 1 h): reversed (at least partially) | serum IL-6 increase after surgery (IL-6): abrogated the increase in IL6
